Like-named read-outs stand apart in the source and are kept apart here. Where a SMILES comes first, the peptide text is derived from it. Bridges are numbered along the chain shown (N, C = ends). [ ]: non-standard residue; d: D form. hPhe(3-Cl-4-CF3) = N[C@@H](CCc1ccc(C(F)(F)F)c(Cl)c1)C(=O)O; NPrPhe(4-CF3) = CCCN[C@@H](Cc1ccc(C(F)(F)F)cc1)C(=O)O; NMeGly(cPent) = CN[C@H](C(=O)O)C1CCCC1; Pro(4,4-F2) = O=C(O)[C@@H]1CC(F)(F)CN1; NMeD = CN[C@@H](CC(=O)O)C(=O)O; NMeL = CN[C@@H](CC(C)C)C(=O)O; NMeA = CN[C@@H](C)C(=O)O; Ac5c = NC1(C(=O)O)CCCC1; Aze = O=C(O)[C@@H]1CCN1; Ac4c = NC1(C(=O)O)CCC1; NEtG = CCNCC(=O)O; Sar = CNCC(=O)O
Assays:
[1] = system: human lung cancer strain NCI-H441; type: cell-based
Method in brief: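 Signal came from […] measured per well once the reagent was added. Beforehand, cells were cultured at 37°C and 5% carbon dioxide on a compound series serially diluted in dimethyl sulfoxide.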

[2] = target: GDP-bound NRAS wild-type protein (Homo sapiens, UniProt P01111); assay: Binding to NRAS by surface plasmon resonance (SPR), KD and KD ratio to KRAS
Method in brief: (§1)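 Measured at 30°C: SPR with GDP-loaded, E. coli-expressed biotin-Avi RAS captured (~100–300 RU), ascending 75 s compound injections, HBS pH 7.4 with GDP, MgCl2, 4% DMSO. KD from 1:1 fit.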

HRAS wild-type protein = HRAS wild-type protein (Homo sapiens, UniProt P01112); assay: Binding to HRAS by surface plasmon resonance (SPR), KD and KD ratio to KRAS
Method in brief: as §1

[3] = ratio of the KD value with respect to GDP-bound NRAS wild-type protein to the KD value with respect to KRAS
[4] = ratio of the KD value with respect to HRAS wild-type protein to the KD value with respect to KRAS
[5] = ratio of KD value for GDP-bound NRAS wild-type protein to KD value for KRAS (SPR)
[6] = ratio of KD value for HRAS wild-type protein to KD value for KRAS (SPR)
[7] = ratio of KD for GDP-bound NRAS wild-type protein to KD for KRAS
[8] = ratio of KD for HRAS wild-type protein to KD for KRAS

Chain of GDP-bound NRAS wild-type protein (P01111 whole entry): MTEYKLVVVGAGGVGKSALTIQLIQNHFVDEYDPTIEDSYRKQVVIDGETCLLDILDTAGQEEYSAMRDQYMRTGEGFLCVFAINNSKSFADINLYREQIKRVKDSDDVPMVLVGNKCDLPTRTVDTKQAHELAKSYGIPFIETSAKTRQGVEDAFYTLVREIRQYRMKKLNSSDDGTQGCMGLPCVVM
Chain of HRAS wild-type protein (P01112 whole entry): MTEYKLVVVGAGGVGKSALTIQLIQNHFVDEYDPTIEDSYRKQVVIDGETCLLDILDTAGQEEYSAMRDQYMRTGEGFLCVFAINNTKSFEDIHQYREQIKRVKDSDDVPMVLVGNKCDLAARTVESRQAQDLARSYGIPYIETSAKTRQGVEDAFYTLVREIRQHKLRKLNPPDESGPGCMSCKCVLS

## CCCN1C(=O)[C@@H]2CCN2C(=O)[C@H](C)N(C)C(=O)[C@H]([C@@H](C)CC)NC(=O)[C@H](CC(C)C)N(C)C(=O)C[C@@H](C(=O)N(C)C)N(C)C(=O)[C@H](C2CCCC2)N(C)C(=O)C2(CCCC2)NC(=O)[C@@H]2CC(F)(F)CN2C(=O)[C@H](CCc2ccc(C(F)(F)F)c(Cl)c2)NC(=O)CN(C)C(=O)[C@@H]1Cc1ccc(C(F)(F)F)cc1 [PP0436] ([NMeL]I[NMeA][Aze][NPrPhe(4-CF3)][Sar][hPhe(3-Cl-4-CF3)][Pro(4,4-F2)][Ac5c][NMeGly(cPent)][NMeD]-NMe2; lactam N-11)
[1]
  IC50: 1 nM
[2]; [3]
  NRAS /KRAS: C (A compound having a KD ratio of 0.1 or more and less than 3 is denoted as C)
HRAS wild-type protein; [4]
  HRAS /KRAS: C (A compound having a KD ratio of 0.1 or more and less than 3 is denoted as C)

## CCCC[C@H]1C(=O)N[C@@H]([C@@H](C)CC)C(=O)N(C)CC(=O)N(C)[C@H]2C/C=C\CCN(C2=O)[C@@H](Cc2ccc(C(F)(F)F)cc2)C(=O)N(C)CC(=O)N[C@@H](CCc2cc(F)c(C(F)(F)F)c(F)c2)C(=O)N2C[C@H](OCC)C[C@H]2C(=O)NC2(CCC2)C(=O)N(C)[C@@H](C2CCCC2)C(=O)N(C)[C@H](C(=O)N(C)CCC)CC(=O)N1C [PP1704]
[1]
  IC50: 10.3 nM
[2]; [5]
  NRAS /KRAS: A (a compound having 10 or more and less than 20 is denoted as A)
HRAS wild-type protein; [6]
  HRAS /KRAS: A (a compound having 10 or more and less than 20 is denoted as A)

## CC[C@H](C)[C@@H]1NC(=O)[C@H](CC)N(C)C(=O)C[C@@H](C(=O)N(C)C)N(C)C(=O)[C@H](C2CCCC2)N(C)C(=O)C2(CCC2)NC(=O)[C@@H]2C[C@H](N3CCC(F)(F)CC3)CN2C(=O)[C@H](CCc2cc(F)c(C(F)(F)F)c(F)c2)NC(=O)CN(C)C(=O)[C@H](Cc2ccc(C(F)(F)F)cc2)N2CCCCC[C@@H](C2=O)N(C)C(=O)CN(C)C1=O [PP0731]
[1]
  IC50: 110 nM
[2]; [3]
  NRAS /KRAS: B (a compound having 3 or more and less than 10 is denoted as B)
HRAS wild-type protein; [4]
  HRAS /KRAS: B (a compound having 3 or more and less than 10 is denoted as B)

## CCOC[C@H]1C(=O)N[C@@H]([C@@H](C)CC)C(=O)N(C)CC(=O)N(C)[C@H]2C/C=C\CCN(C2=O)[C@@H](Cc2ccc(C3CC3)cc2)C(=O)N(C)CC(=O)N[C@@H](CCc2ccc(C(F)(F)F)c(OC)c2)C(=O)N2C[C@@H](C)C[C@H]2C(=O)NC2(CC(C)(C)C2)C(=O)N(C)[C@@H](C2CCCC2)C(=O)N(C)[C@H](C(=O)N(C)CC)CC(=O)N1C [PP2700]
[1]; NCI-H441 cells, 4 days, CellTiter-Glo, read-out: NCl-H441 IC50
  IC50: 23.1 nM
[2]; [7]
  NRAS /KRAS: A (a compound having 10 or more and less than 20 is denoted as A)
HRAS wild-type protein; [8]
  HRAS /KRAS: B (a compound having 3 or more and less than 10 is denoted as B)

## CCO[C@@H]1C[C@H]2C(=O)NC3(CCC3)C(=O)N(C)[C@@H](C3CCCC3)C(=O)N(C)[C@H](CC)CC(=O)N(C)[C@@H](CC)C(=O)N[C@@H]([C@@H](C)CC)C(=O)N(C)CC(=O)N(C)[C@H]3C/C=C\CCN(C3=O)[C@@H](Cc3ccc(C(F)(F)F)cc3)C(=O)N(C)CC(=O)N[C@@H](CCc3cc(F)c(C(F)(F)F)c(F)c3)C(=O)N2C1 [PP1625]
[1]
  IC50: 20.2 nM
[2]; [5]
  NRAS /KRAS: B (a compound having 3 or more and less than 10 is denoted as B)
HRAS wild-type protein; [6]
  HRAS /KRAS: B (a compound having 3 or more and less than 10 is denoted as B)

## CCCN1C(=O)CN(C)C(=O)CN(CC)C(=O)[C@H]([C@@H](C)CC)NC(=O)[C@H](CC(C)C)N(C)C(=O)C[C@@H](C(=O)N(C)C)NC(=O)[C@H](C2CCCC2)N(C)C(=O)C2(CCC2)NC(=O)[C@@H]2CCCN2C(=O)[C@H](CCc2ccc(C(F)(F)F)c(Cl)c2)NC(=O)CN(C)C(=O)[C@@H]1Cc1ccc(C(F)(F)F)cc1 [PP0368] ([NMeL]I[NEtG][Sar][NPrPhe(4-CF3)][Sar][hPhe(3-Cl-4-CF3)]P[Ac4c][NMeGly(cPent)]D-NMe2; lactam N-11)
[1]
  IC50: 115 nM
[2]; [7]
  NRAS /KRAS: B (a compound having 3 or more and less than 10 is denoted as B)
HRAS wild-type protein; [8]
  HRAS /KRAS: B (a compound having 3 or more and less than 10 is denoted as B)

## CCC[C@H]1C(=O)N[C@@H]([C@@H](C)CC)C(=O)N(C)CC(=O)N(C)[C@H]2C/C=C\CCN(C2=O)[C@@H](Cc2ccc(C(F)(F)F)cc2)C(=O)N(C)CC(=O)N[C@@H](CCc2cc(F)c(C(F)(F)F)c(F)c2)C(=O)N2C[C@H](OCC)C[C@H]2C(=O)NC2(CCC2)C(=O)N(C)[C@@H](C2CCCC2)C(=O)N(C)[C@H](C(=O)N(C)CCOC)CC(=O)N1C [PP1331]
[1]
  IC50: 13.9 nM
[2]; ratio of KD with respect to GDP-bound NRAS wild-type protein to KD with respect to KRAS
  NRAS /KRAS: A (a compound having 10 or more and less than 20 is denoted as A)
HRAS wild-type protein; ratio of KD with respect to HRAS wild-type protein to KD with respect to KRAS
  HRAS /KRAS: A (a compound having 10 or more and less than 20 is denoted as A)

Reference: patent EP4603105A1, “PHARMACEUTICAL COMPOSITION CONTAINING CYCLIC COMPOUND HAVING SELECTIVE KRAS INHIBITORY EFFECT AGAINST HRAS AND NRAS” (CHUGAI SEIYAKU KABUSHIKI KAISHA, priority 2022, dated 2024)
